# Results: publication PMC7318222, “A Family of Water‐Immiscible, Dipolar Aprotic, Diamide Solvents from Succinic Acid” (Chemsuschem, 2020)
# Target: T1, PR (Homo sapiens, UniProt P06401)
# T1 construct: expression construct for the full-length human receptor under investigation; expressed in transfected cells; host or cells: human U2-OS cells (ATCC HTB-96), stably transfected
# T1 sequence (P06401 1-933): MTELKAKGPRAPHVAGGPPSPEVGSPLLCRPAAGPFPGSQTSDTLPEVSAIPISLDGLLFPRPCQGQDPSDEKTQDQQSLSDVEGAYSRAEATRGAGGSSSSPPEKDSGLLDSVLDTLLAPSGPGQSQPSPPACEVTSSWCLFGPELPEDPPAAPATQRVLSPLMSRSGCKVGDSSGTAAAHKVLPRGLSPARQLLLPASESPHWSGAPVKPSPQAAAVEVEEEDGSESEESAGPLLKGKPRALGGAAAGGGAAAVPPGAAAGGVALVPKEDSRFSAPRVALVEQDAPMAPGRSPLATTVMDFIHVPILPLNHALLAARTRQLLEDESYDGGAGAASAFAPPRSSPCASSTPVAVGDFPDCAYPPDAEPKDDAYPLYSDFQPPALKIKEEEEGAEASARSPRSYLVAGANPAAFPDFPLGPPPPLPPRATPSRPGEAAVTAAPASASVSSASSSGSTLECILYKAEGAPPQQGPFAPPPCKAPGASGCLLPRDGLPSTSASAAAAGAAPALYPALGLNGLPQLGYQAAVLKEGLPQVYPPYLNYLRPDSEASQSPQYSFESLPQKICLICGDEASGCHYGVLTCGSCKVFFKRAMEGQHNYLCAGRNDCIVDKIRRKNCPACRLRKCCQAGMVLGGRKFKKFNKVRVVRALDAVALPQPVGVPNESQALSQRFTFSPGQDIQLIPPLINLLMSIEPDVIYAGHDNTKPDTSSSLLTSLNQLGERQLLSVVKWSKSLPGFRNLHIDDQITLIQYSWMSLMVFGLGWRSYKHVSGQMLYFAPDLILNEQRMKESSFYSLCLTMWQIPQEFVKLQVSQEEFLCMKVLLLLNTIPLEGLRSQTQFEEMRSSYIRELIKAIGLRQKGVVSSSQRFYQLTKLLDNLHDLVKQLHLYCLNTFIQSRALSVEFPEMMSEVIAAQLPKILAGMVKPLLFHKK
# Assay: PR-anti CALUX reporter gene assay (antagonistic mode)
# Format: cell-based
# Parameters: key: –: no effect observed up to the highest test concentration
# Conditions: PC20, 24 h exposure
# Description: 99.8% (anhydrous), 4-nitroaniline ≥99.0%, 1-octanol ≥99.0%, diglyme ≥99.0%, DMSO-d6 (99.8% D) and chloroform-d (99.8% D) were purchased from Sigma-Aldrich. Toluene ≥99.0%, hexane ≥99.5%, DCM ≥99.5%, chloroform ≥99.5%, DMSO ≥99.0% were purchased from VWR. N,N-diethyl-4-nitroaniline ≥98.0% was purchased from Alfa Aeser. Cyrene was supplied by Circa group. N-butylpyrrolidinone was supplied by Eastman chemicals. N,N-dimethylformamide 99.9% and N,N-dimethylacetamide 99.9% were purchased from Fischer. The flakes of Ultrason® E3020 P Polyarylethersulfone of 55,000 Da were obtained from INGE.BASF, Germany. The CALUX cell lines have been described previously.[1] They are based on human U2-OS cells (ATCC, HTB-96) stably transfected with an expression construct for the full-length human receptor under investigation, and a reporter construct consisting of multimerized responsive elements for the cognate receptor coupled to a minimal promoter element (TATA) and a luciferase gene. Cells were maintained as described previously,[2] using cell culture media and supplements from Fisher Scientific as described in the experimental procedures section. […]
# In vitro reporter gene assays
# The automated CALUX assays were carried out similarly as described earlier,[12] with some adaptations. In brief, the assay was performed in CO2 independent medium (Fisher Scientific, […]
# supplement (Fisher Scientific, 11574466), 10 U/mL penicillin and 10 µg/mL streptomycin. A cell suspension in assay medium was made of 1 × 10^5cells/mL, and white 384-wells plates were seeded with 30 µl cell suspension/well. After 24 h, exposure medium was prepared. A dilution series in 0.5log unit increments of each test compound (in DMSO) was added to a 96-wells plate containing assay medium (2% v/v). Of this exposure mixture, 30 µl was added to the assay plates containing the CALUX cells, resulting in a final DMSO concentration of 1%. Additionally, DMSO blanks and a full dose response curve of the relevant reference compound were included on each plate. All samples were tested in triplicate. The preparation of the compound dilution series as well as the exposure of the cells were performed on a Hamilton StarLET liquid handling robot coupled to a Cytomat incubator.
# Directly after exposure, plates were sealed with non-breathing plate seals (Plate sealer, easy seal transparent; Greiner-Bio-One, 676001). After 24 h the exposure medium was removed using an EL406 washer-dispenser (BioTek) and 10 µl/well triton lysisbuffer was added by the EL406.
# Subsequently, the luciferase signal was measured in a luminometer (InfinitePro coupled to a Connect Stacker, both TECAN). In order to be able to detect receptor antagonism, several assays were also performed in antagonistic mode. The assay procedure was as described above, with the only exception that the EC50 concentration of the reference agonist was present during the exposure.
# The luminometer data was analysed as follows; the average of the triplicate wells was determined, and the average blank (DMSO) value was subtracted. […] For antagonist- and cytotoxicity experiments, PC20 values were determined instead, which was defined as the concentration where the test compound causes a 20% decrease in the basal signal, which was […]
# curve, the signal induction above background (DMSO) was determined, and the concentration where the compound elicited a 1.5-fold increase above background was used as LEC.
row,LEC PR‐anti,SMILES
1,–,"CCCCN(CC)C(=O)CCC(=O)N(CC)CCCC [EBSA, N,N′‐diethyl‐N,N′‐dibutylsuccindiamide]"
2,–,"CN1CCCC1=O [NMP, N‐methyl‐2‐pyrrolidone, reference compound]"
3,–,"CCCCN(C)C(=O)CCC(=O)N(C)CCCC [MBSA, N,N′‐dimethyl‐N,N′‐dibutylsuccindiamide]"
4,–,"CCCCN(CCCC)C(=O)CCC(=O)N(CCCC)CCCC [TBSA, N,N,N′,N′‐tetrabutylsuccindiamide]"
5,–,"CCCCN1CCCC1=O [NBP, N‐Butylpyrrolidinone, reference compound]"
